From article PMC10997755, “Discovery of a small-molecule inhibitor that traps Polθ on DNA and synergizes with PARP inhibitors” (Nature Communications, 2024)
“And” between values parts separate entries of the source, which are not always exact repeats. Equal values may be shown once. “Also recorded” adds a separate entry of the source.

Tests used:
Assay type in all cases: biochemical
[1] = target: T1, EcoRI (Escherichia coli, UniProt P00642); assay: EcoRI cleavage control in the absence of Polθ-pol; details: for cleavage %: EcoRI; for % cleavage: compound 10 µM
T1 construct: purchased New England Biolabs
Protocol: (§1) EcoRI and KpnI endonucleases assay: 25 nM 5’-^32P radiolabeled primer-template DNA Sc15-EcoRI (5’-^32P LM3-EcoRI/LM4-EcoRI) or Sc19-KpnI (5’-^32P LM11-Kpn/LM12-Kpn) in reaction buffer (25 mM Tris-HCl pH 7.5, 10 mM MgCl2, 10% glycerol, 0.1 mg/mL BSA, 0,01% igepal, 1 mM DTT) were incubated in the presence or in the absence of 50 nM Polθ-pol, 100 μM ddCTP, and 10 μM inhibitors, as indicated, for 5 min at room temperature. Next, 0.08 U/μL EcoRI or KpnI together with 500 nM “trapping” DNA Sc14 (RP559/RP702) were added and incubated for further 0–40 min at 30 °C as indicated. 10 nM PolθΔcen and FL-Polθ and 25 nM Sc15-EcoRI and Sc19-Kpn were probed with 0.04 U/μL EcoRI or KpnI (both from New England Biolabs) using the same conditions. Reactions were stopped by addition of formamide loading buffer with 50 mM EDTA, resolved in denaturing 20% urea PAAG and analyzed using Typhoon PhosphorImager (GE Amersham). Quantification was done in ImageQuant TL software. All quantified experiments were performed in triplicates and plotted as mean with ± s.d using GraphPad Prism 9 software.

[2] = target: T2, Polθ-pol:DNA/DNA complex (Homo sapiens, UniProt O75417); assay: KpnI endonuclease protection assay; details: for i (%), normalized to 100%, ave(%) / i (%), replicates: 14 nt i; for i+1 (%) normalized to 100%, ave(%) / i+1 (%), replicates: 15 nt i+1
T2 construct: purified recombinant human Polθ-pol (comprising amino acid residues 1792–2590); made in house
T2 sequence (O75417 1792-2590): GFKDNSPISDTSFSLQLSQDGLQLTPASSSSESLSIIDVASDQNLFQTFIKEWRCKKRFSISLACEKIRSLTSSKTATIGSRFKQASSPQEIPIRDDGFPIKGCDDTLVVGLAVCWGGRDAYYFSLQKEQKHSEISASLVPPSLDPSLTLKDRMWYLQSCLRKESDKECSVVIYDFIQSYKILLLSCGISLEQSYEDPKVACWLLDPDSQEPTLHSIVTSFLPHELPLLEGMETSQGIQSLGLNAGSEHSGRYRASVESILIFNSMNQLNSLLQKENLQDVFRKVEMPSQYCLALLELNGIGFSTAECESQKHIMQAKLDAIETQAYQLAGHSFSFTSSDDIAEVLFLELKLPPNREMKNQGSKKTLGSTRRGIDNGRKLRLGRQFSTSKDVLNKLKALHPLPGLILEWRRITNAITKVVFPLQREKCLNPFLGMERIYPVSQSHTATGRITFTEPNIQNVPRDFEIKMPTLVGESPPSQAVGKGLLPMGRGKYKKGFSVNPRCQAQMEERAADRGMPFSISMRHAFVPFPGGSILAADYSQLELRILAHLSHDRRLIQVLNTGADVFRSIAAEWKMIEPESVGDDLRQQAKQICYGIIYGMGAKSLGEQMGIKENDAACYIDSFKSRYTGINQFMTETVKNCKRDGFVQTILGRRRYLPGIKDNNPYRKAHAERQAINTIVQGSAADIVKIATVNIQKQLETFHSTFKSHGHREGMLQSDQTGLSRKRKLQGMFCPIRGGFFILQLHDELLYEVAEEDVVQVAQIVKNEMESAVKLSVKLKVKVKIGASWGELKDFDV
Protocol: as §1

[3] = target: T3, KpnI (Klebsiella pneumoniae, UniProt P25237); assay: KpnI cleavage control in the absence of Polθ-pol; details: for cleavage %: KpnI; for % cleavage: compound 10 µM
T3 construct: purchased New England Biolabs
T3 sequence (P25237 1-218): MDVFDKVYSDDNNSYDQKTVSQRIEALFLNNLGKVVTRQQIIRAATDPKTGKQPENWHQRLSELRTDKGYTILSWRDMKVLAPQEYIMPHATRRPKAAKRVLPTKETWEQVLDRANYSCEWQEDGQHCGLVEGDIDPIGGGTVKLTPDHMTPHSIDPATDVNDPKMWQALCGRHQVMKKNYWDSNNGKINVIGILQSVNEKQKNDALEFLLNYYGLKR
Protocol: as §1

[4] = target: T2, Polθ-pol:DNA/DNA complex; assay: EcoRI endonuclease protection assay; details: for EcoRI cleavage %, ave / EcoRI cleavage %, replicates #1-#3: Eco+pol+ddC+RTx compound; for i (%) (14 nt), replicates #1-#3 / i (%), normalized to 100%, ave(%) / i+1 (%) (15 nt), replicates #1-#3 / i+1 (%) normalized to 100%, ave(%): pol+ddC+compound;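 as to i+1 (%) (15 nt), replicates #1-#3: i+1 is one-nucleotide extended DNA within post-catalytic complexes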
Protocol: as §1

T1 sequence (P00642 2-277 limits assumed): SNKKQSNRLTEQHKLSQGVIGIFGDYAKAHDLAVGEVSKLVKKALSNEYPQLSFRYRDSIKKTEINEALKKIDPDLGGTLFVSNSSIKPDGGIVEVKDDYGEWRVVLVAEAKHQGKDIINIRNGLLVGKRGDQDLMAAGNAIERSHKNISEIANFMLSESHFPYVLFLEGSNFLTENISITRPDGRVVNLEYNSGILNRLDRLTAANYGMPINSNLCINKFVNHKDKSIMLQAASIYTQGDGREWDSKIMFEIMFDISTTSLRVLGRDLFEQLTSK

With `CN(C(=O)Oc1c(N2CCN(CCO)C2=O)cc(C(F)(F)F)cc1C(F)(F)F)c1ccc(F)cc1` [RTx-161] the cleavage % ([1]; 3 min) was 26.2%, the cleavage % ([1]; 6 min) was 44.3% and the “inhibition of EcoRI activity” value ([1]; absence of Polθ-pol) was “resistant to inhibition; also recorded: do not inhibit”. The “% cleavage” value ([1]; cleavage 3 min) was 26%, the “% cleavage” value ([1]; cleavage 6 min) was 44% and the “KpnI cleavage %, ave” value ([2]; Kpn+pol+ddC+RTx161, 2.5min) was 0.667%. The “KpnI cleavage %, replicates” value ([2]; Kpn+pol+ddC+RTx161, 2.5min) was 1.0% (2×) and 0.0%, the “KpnI cleavage %, ave” value ([2]; Kpn+pol+ddC+RTx161, 5min) was 0.667% and the “KpnI cleavage %, replicates” value ([2]; Kpn+pol+ddC+RTx161, 5min) was 1.0% (2×) and 0.0%. For the same molecule, the “KpnI cleavage %, ave” value ([2]; Kpn+pol+ddC+RTx161, 10min) was 1.7%, the “KpnI cleavage %, replicates” value ([2]; Kpn+pol+ddC+RTx161, 10min) was 2.0% (2×) and 1.0% and the “trapping of post-catalytic complexes, different sequence context” value ([2]; KpnI) was “identical trapping”. For the same molecule, the “i (%), normalized to 100%, ave(%)” value ([2]; KpnI, pol+ddC+161, 2.5 min) was 100.0%, the “i (%), replicates” value ([2]; KpnI, pol+ddC+161, 2.5 min) was 37.5% and 36.0% and 24.6% and the “i+1 (%) normalized to 100%, ave(%)” value ([2]; KpnI, pol+ddC+161, 2.5 min) was 100.0%. For the same molecule, the “i+1 (%), replicates” value ([2]; KpnI, pol+ddC+161, 2.5 min) was 53.1% and 51.8% and 59.1%, the “i (%), normalized to 100%, ave(%)” value ([2]; KpnI, pol+ddC+161, 5 min) was 87.7% and the “i (%), replicates” value ([2]; KpnI, pol+ddC+161, 5 min) was 33.9% and 31.6% and 20.7%. For the same molecule, the “i+1 (%) normalized to 100%, ave(%)” value ([2]; KpnI, pol+ddC+161, 5 min) was 105.6%, the “i+1 (%), replicates” value ([2]; KpnI, pol+ddC+161, 5 min) was 54.8% and 55.9% and 62.4% and the “i (%), normalized to 100%, ave(%)” value ([2]; KpnI, pol+ddC+161, 10 min) was 67.8%. The “i (%), replicates” value ([2]; KpnI, pol+ddC+161, 10 min) was 26.7% and 24.4% and 15.5%, the “i+1 (%) normalized to 100%, ave(%)” value ([2]; KpnI, pol+ddC+161, 10 min) was 114.7% and the “i+1 (%), replicates” value ([2]; KpnI, pol+ddC+161, 10 min) was 61.3% and 62.1% and 64.7%. The cleavage % ([3]; 3 min) was 20.2%, the cleavage % ([3]; 6 min) was 33.3% and the “inhibition of KpnI activity” value ([3]; absence of Polθ-pol) was “resistant to inhibition”. The “% cleavage” value ([3]; cleavage 3 min) was 20%, the “% cleavage” value ([3]; cleavage 6 min) was 33% and the “time Polθ-pol is trapped on DNA/DNA (EcoRI cleavage suppressed)” value ([4]; 10 μM inhibitor, ddCTP) was greater than 10 min. The “EcoRI cleavage %, ave” value ([4]; 2.5min) was 4.0%, the “EcoRI cleavage %, replicates #1-#3” value ([4]; 2.5min) was 5.8% and 3.2% and 4.2% and the “EcoRI cleavage %, ave” value ([4]; 5min) was 6.0%. For the same molecule, the “EcoRI cleavage %, replicates #1-#3” value ([4]; 5min) was 8.0% and 4.6% and 4.9%, the “EcoRI cleavage %, replicates #1-#3” value ([4]; 10min) was 9.0% and 6.1% and 7.3% and the “i (%) (14 nt), replicates #1-#3” value ([4]; 2.5min) was 25.2% and 24.9% and 24.6%. For the same molecule, the “i (%), normalized to 100%, ave(%)” value ([4]; 2.5min) was 100.0%, the “i+1 (%) (15 nt), replicates #1-#3” value ([4]; 2.5min) was 53.9% and 59.3% and 59.1% and the “i+1 (%) normalized to 100%, ave(%)” value ([4]; 2.5min) was 100.0%. For the same molecule, the “i (%) (14 nt), replicates #1-#3” value ([4]; 5min) was 21.5% and 21.2% and 20.7%, the “i (%), normalized to 100%, ave(%)” value ([4]; 5min) was 85.0% and the “i+1 (%) (15 nt), replicates #1-#3” value ([4]; 5min) was 55.1% and 61.3% and 62.4%. For the same molecule, the “i+1 (%) normalized to 100%, ave(%)” value ([4]; 5min) was 103.8%, the “i (%) (14 nt), replicates #1-#3” value ([4]; 10min) was 11.4% and 15.0% and 15.5% and the “i (%), normalized to 100%, ave(%)” value ([4]; 10min) was 56.1%. The “i+1 (%) (15 nt), replicates #1-#3” value ([4]; 10min) was 66.5% and 64.8% and 64.7% and the “i+1 (%) normalized to 100%, ave(%)” value ([4]; 10min) was 113.8%.
